Test results: US11191798B2, “Extracts of Andrographis paniculata, methods for preparation and use thereof” (NUTRITION SCIENCE PARTNERS LIMITED, priority 2016, dated 2021)

Assays:
FGF1 [1] = test: FGF1 mRNA expression in human T84 cell line (Assay 6); type: cell-based; details: about 24 hours
Procedure: Enhancement of FGF1 expression of Example 7 and the four ingredients AND, NAND, DAND, and DDAND was investigated in human T84 cell line.
The adherent epithelial cell line T84 was used in the assay. For sustaining cell culture, T84 cells were incubated with DMEM/F-12 (1:1) medium containing 5% FBS at 37° C. with 5% CO2. Sub-culture was performed when cells reached 90% confluence.
(§1) For the assay, the cells were trypsinized and suspended in culture medium. The cell density was determined and adjusted to 1×10^6 cells/mL. Then, the cells were seeded into a 96-well plate and incubated at 37° C. with 5% CO2 overnight.
The two Andrographis paniculata extracts, Standard 1 and Example 7, and AND, NAND, DAND, DDAND, and the mixture of them (named as the mixture of 4 markers, wherein the amounts of AND, NAND, DAND, and DDAND were 69%, 11%, 5%, and 15%, respectively, by weight relative to the weight of the mixture) were serially diluted in DMSO and further diluted in medium. Diluted solution was added into wells. The final concentrations for Standard 1 were: 300 and 100 μg/mL. The final concentration for Example 7 was: 100 μg/mL. The final concentration for NAND, DAND and DDAND was 10 μg/mL and AND was 40 μg/mL. The final concentrations for mixture of 4 markers were: 100 and 30 μg/mL. The plate was incubated at 37° C. with 5% CO2 for about 24 hours. The supernatants were removed and 150 μL RLT buffer was added into each well. The plate was stored at −80° C. until RNA extraction.
Total RNA was extracted using RNeasy 96 kit (QIAGEN) and cDNA was synthesized from RNA template using High Capacity cDNA RT kit (Applied Biosystems). Quantitative real-time PCR detection of gene expression was using SYBR Premix Ex Taq TM II (TakaRa). Expression of genes analyzed by q-PCR was normalized to GAPDH using the fold change (2^−ΔΔCT) method. The formula used in the calculation is shown as follows: Fold=2^−ΔΔCT=2^−[(CT^test sample^−CT^test sample_GAPDH^)−(CT^minimum^−CT^minimum_GAPDH^)] where CTtest sample is the CT value of target gene in cells treated with the test samples; CTtest sample-GAPDH is the CT value of GAPDH gene in cells treated with the test samples; CTminimum is the CT value of target gene in cells treated without test samples, and CTminimum-GAPDH is the CT value of GAPDH gene in cells treated without test samples.

EGF [2] = test: EGF mRNA expression in epithelial cell line HT29; type: cell-based, human; details: about 24 hours
Procedure: (§2) Enhancement of EGF and FGF expression were investigated in a human HT-29 and T84 cell lines.
(§3) Two adherent epithelial cell lines, HT29 and T84, were used in the assay. For sustaining cell culture, HT29 cells were incubated in cell culture dish with McCoy's 5a Medium containing 10% FBS, and T84 cells were incubated with DMEM/F-12 (1:1) medium containing 5% FBS. All cells were incubated at 37° C. with 5% CO2. Sub-culture was performed when cells reached 90% confluence.
as §1
(§4) The two Andrographis paniculata extracts, Standard 1 and Example 1, were serially diluted in DMSO and further diluted in medium. Diluted solution was added into wells. The final concentrations for Standard 1 were: 300, 100, 30 and 10 μg/mL. The final concentrations for Example 1 were: 100, 30, 10 and 1 μg/mL. […]
(§5) Total RNA was extracted using RNeasy 96 kit (QIAGEN) and cDNA was synthesized from RNA template using High Capacity cDNA RT kit (Applied Biosystems). Quantitative real-time PCR detection of gene expression was using SYBR Premix Ex Taq TM II (TakaRa). Expression of genes analyzed by q-PCR was normalized to GAPDH using the fold change (2^−ΔΔCT) method. […]

EGF [3] = test: EGF mRNA expression in epithelial cell line T84; type: cell-based, human; details: about 24 hours
Procedure: as §2, §3, §1, §4, §5

FGF2 = FGF2 mRNA expression in epithelial cell T84 (Assay 5); type: cell-based, human; details: about 24 hours
Procedure: as §2, §3, §1, §4, §5

FGF1 [4] = test: FGF1 mRNA expression in epithelial cell T84 (Assay 5); type: cell-based, human; details: about 24 hours
Procedure: as §2, §3, §1, §4, §5

DNBS-induced rat colitis = DNBS-induced rat colitis prophylactic model; type: in vivo, Wistar rats
Procedure: Assay 7: The In Vivo Efficacy of Andrographis Extract in a DNBS-Induced Rat Colitis Prophylactic Model 1. Materials 1.1. Test Compounds and Formulation Methods • Test articles: Two Andrographis paniculata extracts, Example 10 used in Experiment 1 and Example 11 used in Experiment 2. • Control drugs: Standard 1; and Sulfasalazine (SASP), Sigma-Aldrich, Cat S0883.
Oral suspension of the test articles and Standard 1 were prepared as follows: the test articles and Standard 1 were respectively weighed and added into a 50 mL centrifuge tube. 0.5% sodium carboxymethylcellulose (0.5% CMC-Na) was added. Sonicate for 15 min to give suspensions with desired concentration. The fresh-made formulation was stored away from light, and homogenized thoroughly before use. The administration volume was 10 ml/kg.
Oral suspension of SASP was prepared as follows: SASP was weighed and added into a 50 mL centrifuge tube. 0.5% CMC-Na was added. Sonicate for 15 min to give 30 mg/mL suspension. The fresh-made formulation was stored away from light, and homogenized thoroughly before use. The administration volume was 10 ml/kg.
Male Wistar rats, 110-130 g, were purchased from Shanghai SLAC Laboratory Animal Co. Ltd.
Wistar rats were randomized assigned. The fasting rats were anesthetized with 25 mg/kg Zoletil and 0.5 mg/kg xylazine. And colitis was induced by intracolonic administration of 10 mg or 12 mg DNBS dissolved in 0.25 mL of 30% ethanol (v/v). The animals in naive control group were instilled with 30% ethanol only.
• Body weight: Body weights of animals were checked daily on and after grouping. • Diarrhea score: Stool consistency of the animals was monitored and scored daily from the 3rd day after the model induction. Evaluation criteria: 0=formed, 1=moist/sticky, 2=loose, 3=liquid. • Colon weight and length measurement: Rats were sacrificed 4 h post the last dosing on the 6th day. The abdomen was opened by a midline incision. Adhesion degree of colon and other organs was observed. The colon (from cecum end to the anus) was emptied of its content, rinsed with saline. The weight and length of the colon were measured, and then the colon ratio (colon weight/colon length) was calculated. • Histopathology analysis: Proximal colon with obvious ulcer was made into Swiss Rolls, fixed in 10% neutral formalin solution, dehydrated with xylene, embedded in paraffin, sectioned, and stained with hematoxylin and eosin (H&E). […] The severity of lesion was graded based on a semi-quantitative scale using the sum of scores of the following 10 evaluation indicators (see table 7).
All of the data were presented as mean±SD.
Body weight data were analyzed with repeated-measures ANOVA analysis by GraphPad Prism 6.0 software. Fisher's Least Significant Difference (LSD) test was used to perform significance analysis. p value was calculated. *p<0.05 refers to significant difference between vehicle control group and each of the treated groups. **p<0.01 refers to extremely significant difference between vehicle control group and each of the treated groups.
The colon ratio inhibition of each animal was calculated by the following formula, wherein CW refers to colon weight, CL refers to colon length:
The statistical analysis of the data of colon length and colon ratio was performed by Graphpad Prism 6.0 software. Unpaired t test or Mann-Whitney test were applied to analyze the significance analysis between test article treated groups and vehicle treated group, based on the normality of the data.

[5] = Experiment 1, 300 mg/kg PO, mean±SD

C=C1CC[C@@H]2[C@](C)(CO)[C@H](O)CC[C@@]2(C)[C@@H]1CCC1=CCOC1=O [DAND, 14-deoxyandrographolide]
FGF1 up-regulation effect (FGF1 [1]; T84, 10 μg/mL): did not show similar FGF1 up-regulation effect

C=C1CC[C@@H]2[C@](C)(CO[C@@H]3O[C@H](CO)[C@@H](O)[C@H](O)[C@H]3O)CCC[C@@]2(C)[C@@H]1CCC1=CCOC1=O [NAND, Neoandrographolide]
FGF1 up-regulation effect (FGF1 [1]; T84, 10 μg/mL): did not show similar FGF1 up-regulation effect

C=C1CCC2C(C)(CO)C(O)CCC2(C)C1/C=C/C1=CCOC1=O (stereo not shown) [DDAND, 14-Deoxy-11,12-dehydroandrographolide]
FGF1 up-regulation effect (FGF1 [1]; T84, 10 μg/mL): did not show similar FGF1 up-regulation effect

C=C1CC[C@@H]2[C@](C)(CO)[C@H](O)CC[C@@]2(C)[C@@H]1C/C=C1/C(=O)OC[C@H]1O [AND, Andrographolide]
mRNA expression of EGF in HT29 cells (EGF [2]): increased | mRNA expression of EGF in T84 cells (EGF [3]): increased | mRNA expression of FGF2 in T84 cells (FGF2): had no similar effect | mRNA expression of FGF1 in T84 cells (FGF1 [4]): had no similar effect | FGF1 up-regulation effect (FGF1 [1]; T84, 40 μg/mL): did not show similar FGF1 up-regulation effect

O=C(O)c1cc(/N=N/c2ccc(S(=O)(=O)Nc3ccccn3)cc2)ccc1O [SASP, Sulfasalazine]
colon histopathology findings (DNBS-induced rat colitis; 300 mg/kg/day, 8 samples): five samples showed severe mucosal erosion and inflammatory cell infiltration | Colon ratio inhibition, % (DNBS-induced rat colitis; Experiment 1, 300 mg/kg PO): 44.5% | Colon ration CW/CL (%) (DNBS-induced rat colitis; [5]): 0.0846 ± 0.0089 % | Crypt abscesses, histopathological score (DNBS-induced rat colitis; [5]): 0.1 ± 0.4 | Degree of cellular infiltrate, histopathological score (DNBS-induced rat colitis; [5]): 2.1 ± 0.8 | Degree of erosion/ulcer, histopathological score (DNBS-induced rat colitis; [5]): 1.6 ± 1.4 | Degree of mucosa edema, histopathological score (DNBS-induced rat colitis; [5]): 1.6 ± 0.9 | Epithelium hyperplasia, histopathological score (DNBS-induced rat colitis; [5]): 0.8 ± 0.5 | Goblet cell depletion, histopathological score (DNBS-induced rat colitis; [5]): 0.9 ± 0.4 | Muscle thickening, histopathological score (DNBS-induced rat colitis; [5]): 1.4 ± 0.9 | Severe destruction for erosion (%), histopathological score (DNBS-induced rat colitis; [5]): 0.8 ± 0.7 | Severely affected in infiltration (%), histopathological score (DNBS-induced rat colitis; [5]): 1.6 ± 0.7 | The sum of score (colon histopathology) (DNBS-induced rat colitis; [5]): 12.5 ± 6.3 | Total area affected (%), histopathological score (DNBS-induced rat colitis; [5]): 1.6 ± 0.7
